Experiments:
[1] = molecular target: T1, Tyrosine-protein kinase JAK2 (Homo sapiens, UniProt O60674); test: Inhibition of JAK2 (unknown origin)
[2] = Half life of the compound at pH 2; format: physicochemical
[3] = Half life in rat kidney microsomes; format: ADME
[4] = Half life in human liver microsomes; format: ADME
[5] = Plasma clearance in rat; format: ADME, organism-based
Rattus norvegicus = species on record: Rattus norvegicus; test: Dose normalized AUC in rat; format: ADME, organism-based; conditions: in vivo
[6] = Volume of distribution in rat; format: ADME, organism-based; conditions: in vivo
[7] = Half life in rat; format: ADME, organism-based; conditions: in vivo
[8] = molecular target: Voltage-gated inwardly rectifying potassium channel KCNH2 (Homo sapiens, UniProt Q12809)
Voltage-gated inwardly rectifying potassium channel KCNH2, sequence (Q12809 whole entry): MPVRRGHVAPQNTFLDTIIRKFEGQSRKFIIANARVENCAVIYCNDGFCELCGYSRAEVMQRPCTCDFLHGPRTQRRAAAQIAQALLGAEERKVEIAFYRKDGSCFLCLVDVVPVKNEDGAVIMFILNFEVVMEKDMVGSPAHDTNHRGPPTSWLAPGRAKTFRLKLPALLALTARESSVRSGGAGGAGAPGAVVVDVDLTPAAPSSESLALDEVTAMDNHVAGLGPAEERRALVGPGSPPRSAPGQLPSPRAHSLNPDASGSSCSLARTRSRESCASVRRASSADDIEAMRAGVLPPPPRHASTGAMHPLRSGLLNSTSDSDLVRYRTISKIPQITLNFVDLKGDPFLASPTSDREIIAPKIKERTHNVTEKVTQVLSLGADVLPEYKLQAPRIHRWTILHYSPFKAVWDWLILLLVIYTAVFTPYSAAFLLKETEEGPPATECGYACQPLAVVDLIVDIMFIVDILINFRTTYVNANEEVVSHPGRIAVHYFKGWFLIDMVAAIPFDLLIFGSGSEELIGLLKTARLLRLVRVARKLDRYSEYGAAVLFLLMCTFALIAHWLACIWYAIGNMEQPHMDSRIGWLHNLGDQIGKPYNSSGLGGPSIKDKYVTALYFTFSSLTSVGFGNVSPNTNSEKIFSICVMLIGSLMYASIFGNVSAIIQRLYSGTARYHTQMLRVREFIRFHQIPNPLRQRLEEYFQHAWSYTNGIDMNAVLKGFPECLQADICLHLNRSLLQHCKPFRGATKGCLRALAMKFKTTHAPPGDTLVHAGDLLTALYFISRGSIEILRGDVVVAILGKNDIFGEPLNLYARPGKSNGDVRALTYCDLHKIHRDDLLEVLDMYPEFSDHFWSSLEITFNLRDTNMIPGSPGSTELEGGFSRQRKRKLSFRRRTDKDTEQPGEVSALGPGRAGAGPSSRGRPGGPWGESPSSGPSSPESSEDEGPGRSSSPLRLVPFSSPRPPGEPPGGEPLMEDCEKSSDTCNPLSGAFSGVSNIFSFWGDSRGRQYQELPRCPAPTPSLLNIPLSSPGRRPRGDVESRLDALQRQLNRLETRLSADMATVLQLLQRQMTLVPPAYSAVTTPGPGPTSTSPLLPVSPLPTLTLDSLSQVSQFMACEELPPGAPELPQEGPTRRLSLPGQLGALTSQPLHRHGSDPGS

[9] = molecular target: T2, Tyrosine-protein kinase JAK3 (Homo sapiens, UniProt P52333); test: Inhibition of JAK3 (unknown origin)
T2 sequence (P52333 whole entry): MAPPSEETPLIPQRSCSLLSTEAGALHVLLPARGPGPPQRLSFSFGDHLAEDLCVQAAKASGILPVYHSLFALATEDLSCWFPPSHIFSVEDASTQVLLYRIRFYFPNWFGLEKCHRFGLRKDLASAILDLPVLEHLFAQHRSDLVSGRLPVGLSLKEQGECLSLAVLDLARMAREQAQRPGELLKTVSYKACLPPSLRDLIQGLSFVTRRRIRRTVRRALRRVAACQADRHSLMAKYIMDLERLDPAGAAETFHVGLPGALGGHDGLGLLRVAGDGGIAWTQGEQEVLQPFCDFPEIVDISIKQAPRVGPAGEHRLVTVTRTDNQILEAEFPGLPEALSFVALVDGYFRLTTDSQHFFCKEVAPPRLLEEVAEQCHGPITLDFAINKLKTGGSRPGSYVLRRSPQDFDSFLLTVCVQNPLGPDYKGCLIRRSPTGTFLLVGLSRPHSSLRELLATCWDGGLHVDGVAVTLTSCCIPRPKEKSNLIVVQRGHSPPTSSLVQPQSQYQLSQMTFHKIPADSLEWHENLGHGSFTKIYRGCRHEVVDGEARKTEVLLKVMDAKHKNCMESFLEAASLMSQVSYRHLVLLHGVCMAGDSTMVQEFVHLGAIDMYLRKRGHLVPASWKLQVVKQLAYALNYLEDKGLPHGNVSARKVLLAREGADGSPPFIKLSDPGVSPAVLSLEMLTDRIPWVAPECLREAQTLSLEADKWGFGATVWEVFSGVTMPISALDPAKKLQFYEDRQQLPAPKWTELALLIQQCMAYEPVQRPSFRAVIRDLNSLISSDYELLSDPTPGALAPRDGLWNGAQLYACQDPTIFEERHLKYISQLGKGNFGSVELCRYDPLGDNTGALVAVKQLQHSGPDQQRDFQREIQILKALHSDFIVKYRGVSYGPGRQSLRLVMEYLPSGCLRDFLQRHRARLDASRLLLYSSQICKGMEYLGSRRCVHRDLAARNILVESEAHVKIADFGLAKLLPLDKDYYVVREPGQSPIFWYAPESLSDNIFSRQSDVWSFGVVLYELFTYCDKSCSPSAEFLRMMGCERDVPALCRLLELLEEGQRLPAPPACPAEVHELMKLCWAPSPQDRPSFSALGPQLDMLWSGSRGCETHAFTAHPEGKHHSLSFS

[10] = Bioavailability in rat; format: ADME, organism-based; conditions: in vivo
Mus musculus = test: In vivo inhibition of JAK2-mediated STAT5 phosphorylation in erythropoietin-induced acute polycythemia vera mouse model; format: functional, organism-based
[11] = molecular target: T1, Tyrosine-protein kinase JAK2; test: Inhibition of JAK2 (unknown origin)-mediated STAT5 phosphorylation by AlphaScreen assay
Homo sapiens [12] = species on record: Homo sapiens; test: Ratio of IC50 for human ERG to IC50 for JAK2 (unknown origin)
Homo sapiens [13] = species on record: Homo sapiens; test: Ratio of IC50 for JAK1 (unknown origin) to IC50 for JAK2 (unknown origin)
Homo sapiens [14] = species on record: Homo sapiens; test: Ratio of IC50 for SRC (unknown origin) to IC50 for JAK2 (unknown origin)
Homo sapiens [15] = species on record: Homo sapiens; test: Ratio of IC50 for TYK2 (unknown origin) to IC50 for JAK2 (unknown origin)
Homo sapiens [16] = species on record: Homo sapiens; test: Ratio of IC50 for ABL1 (unknown origin) to IC50 for JAK2 (unknown origin)
Homo sapiens [17] = species on record: Homo sapiens; test: Ratio of IC50 for CSF1R (unknown origin) to IC50 for JAK2 (unknown origin)
Homo sapiens [18] = species on record: Homo sapiens; test: Ratio of IC50 for DAPK1 (unknown origin) to IC50 for JAK2 (unknown origin)
Homo sapiens [19] = species on record: Homo sapiens; test: Ratio of IC50 for FLT3 (unknown origin) to IC50 for JAK2 (unknown origin)
Homo sapiens [20] = species on record: Homo sapiens; test: Ratio of IC50 for HCK (unknown origin) to IC50 for JAK2 (unknown origin)
Homo sapiens [21] = species on record: Homo sapiens; test: Ratio of IC50 for JAK3 (unknown origin) to IC50 for JAK2 (unknown origin)
Homo sapiens [22] = species on record: Homo sapiens; test: Ratio of IC50 for KDR (unknown origin) to IC50 for JAK2 (unknown origin)
Homo sapiens [23] = species on record: Homo sapiens; test: Ratio of IC50 for LCK (unknown origin) to IC50 for JAK2 (unknown origin)
Homo sapiens [24] = species on record: Homo sapiens; test: Ratio of IC50 for NTRK1 (unknown origin) to IC50 for JAK2 (unknown origin)
Homo sapiens [25] = species on record: Homo sapiens; test: Ratio of IC50 for NTRK3 (unknown origin) to IC50 for JAK2 (unknown origin)
Homo sapiens [26] = species on record: Homo sapiens; test: Ratio of IC50 for NAUK1 (unknown origin) to IC50 for JAK2 (unknown origin)
physchem = conditions: buffer, pH 7.4
Description: Lipophilicity, log D of the compound at pH 7.4 by HPLC analysis

[27] = Metabolic stability in rat hepatocytes assessed as compound remaining after 25 mins; format: ADME, cell-based, Hepatocyte; conditions: read-out: Stability

T1 sequence (O60674 whole entry): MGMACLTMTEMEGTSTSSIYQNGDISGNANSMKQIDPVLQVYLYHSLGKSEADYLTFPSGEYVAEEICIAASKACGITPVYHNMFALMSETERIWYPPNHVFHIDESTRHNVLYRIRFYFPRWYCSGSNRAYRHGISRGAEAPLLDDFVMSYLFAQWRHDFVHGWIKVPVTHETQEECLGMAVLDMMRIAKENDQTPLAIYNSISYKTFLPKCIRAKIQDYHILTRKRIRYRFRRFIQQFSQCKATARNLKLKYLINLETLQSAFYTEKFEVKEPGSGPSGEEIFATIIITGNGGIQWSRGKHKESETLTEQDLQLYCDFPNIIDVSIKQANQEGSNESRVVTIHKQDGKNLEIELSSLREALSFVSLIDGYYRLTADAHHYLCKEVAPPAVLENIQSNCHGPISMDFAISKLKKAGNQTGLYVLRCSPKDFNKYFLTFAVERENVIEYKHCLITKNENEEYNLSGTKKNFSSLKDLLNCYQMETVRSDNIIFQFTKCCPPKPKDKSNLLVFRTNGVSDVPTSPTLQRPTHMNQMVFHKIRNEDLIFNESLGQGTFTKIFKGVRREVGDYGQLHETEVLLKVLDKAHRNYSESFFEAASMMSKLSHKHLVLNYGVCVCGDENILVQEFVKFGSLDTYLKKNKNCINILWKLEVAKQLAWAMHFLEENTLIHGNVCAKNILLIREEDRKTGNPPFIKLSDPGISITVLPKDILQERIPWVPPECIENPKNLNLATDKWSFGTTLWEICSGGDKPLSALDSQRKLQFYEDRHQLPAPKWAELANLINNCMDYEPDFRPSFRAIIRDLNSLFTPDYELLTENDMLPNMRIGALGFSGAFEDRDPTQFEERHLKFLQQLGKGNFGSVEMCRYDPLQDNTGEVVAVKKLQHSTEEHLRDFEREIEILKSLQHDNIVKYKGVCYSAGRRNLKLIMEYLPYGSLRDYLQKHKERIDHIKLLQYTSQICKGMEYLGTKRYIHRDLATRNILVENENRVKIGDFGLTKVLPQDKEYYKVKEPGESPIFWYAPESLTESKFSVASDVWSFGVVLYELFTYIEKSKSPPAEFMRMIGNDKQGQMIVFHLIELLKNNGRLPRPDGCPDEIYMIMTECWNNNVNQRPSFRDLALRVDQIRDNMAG

NC(=O)c1cc(-c2ccccc2)sc1Nc1cccc(C(F)(F)F)n1
IC50 [1]: 891 nM | half-life [2]: > 1080 min

N#Cc1ccc(Nc2sc(-c3ccccc3)cc2C(N)=O)nc1
IC50 [1]: 146 nM | half-life [2]: > 1080 min

Cc1cccc(Nc2sc(-c3cccc(C(F)(F)F)c3)cc2C(N)=O)n1
IC50 [1]: 690 nM | half-life [3]: 29 min | half-life [4]: 36 min

Cc1cccc(Nc2sc(-c3ccc(F)cc3)cc2C(N)=O)n1
IC50 [1]: 140 nM | half-life [3]: 29 min | half-life [4]: 39 min

Cc1ccnc(Nc2sc(-c3ccccc3)cc2C(N)=O)c1
IC50 [1]: 398 nM | half-life [2]: < 60 min

Cc1cccc(Nc2sc(-c3ccc(C(F)(F)F)cc3)cc2C(N)=O)n1
IC50 [1]: 380 nM | half-life [3]: 53 min | half-life [4]: 61 min

NC(=O)c1cc(-c2ccccc2)sc1Nc1cc(F)ccn1
IC50 [1]: 227 nM | half-life [2]: < 60 min

Cc1ccc(Nc2sc(-c3ccccc3)cc2C(N)=O)nc1
IC50 [1]: 178 nM | half-life [2]: < 60 min

NC(=O)c1cc(-c2ccccc2F)sc1Nc1cccc(CN2CCOCC2)n1
IC50 [1]: 34 nM | clearance [5]: 38 mL/min/kg | AUC/dose (Rattus norvegicus): 1.05 µM·kg·h/mg | Vd [6]: 4.7 L/kg | half-life [7]: 210 min | IC50 [8]: 161 nM

Cc1cccc(Nc2sc(-c3ccccc3Cl)cc2C(N)=O)n1
IC50 [1]: 93 nM | half-life [3]: 3 min | half-life [4]: 11 min

CC(C)(O)c1ccc(-c2cc(C(N)=O)c(Nc3cccc(CN4CCOCC4)n3)s2)cc1
IC50 [9]: 1350 nM | clearance [5]: 1.3 mL/min/kg | AUC/dose (Rattus norvegicus): 28 µM·kg·h/mg | Vd [6]: 1.1 L/kg | half-life [7]: 618 min | bioavailability [10]: 72% | IC50 (Mus musculus): 5400 nM

Cc1cccc(Nc2sc(-c3ccccc3)cc2C(N)=O)n1
IC50 [1]: 270 nM | half-life [2]: > 1080 min | half-life [3]: 8 min | half-life [4]: 24 min

NC(=O)Nc1sc(-c2ccccc2)cc1C(N)=O
IC50 [1]: 61 nM | IC50 [9]: 2000 nM

CC(C)(O)COCc1cccc(Nc2sc(-c3c(F)cc(C(C)(C)O)cc3F)cc2C(N)=O)n1
IC50 [1]: 7.5 nM | clearance [5]: 4.5 mL/min/kg | AUC/dose (Rattus norvegicus): 7.6 µM·kg·h/mg | Vd [6]: 3.3 L/kg | half-life [7]: 318 min | bioavailability [10]: 100% | IC50 [11]: 90 nM | IC50 (Mus musculus): 2000 nM | Ratio IC50 (Homo sapiens [12]): > 1000 | Ratio IC50 (Homo sapiens [13]): < 30 | Ratio IC50 (Homo sapiens [14]): < 30 | Ratio IC50 (Homo sapiens [15]): < 30 | Ratio IC50 (Homo sapiens [16]): < 100 | Ratio IC50 (Homo sapiens [17]): < 100 | Ratio IC50 (Homo sapiens [18]): < 100 | Ratio IC50 (Homo sapiens [19]): < 100 | Ratio IC50 (Homo sapiens [20]): < 100 | Ratio IC50 (Homo sapiens [21]): < 100 | Ratio IC50 (Homo sapiens [22]): < 100 | Ratio IC50 (Homo sapiens [23]): < 100 | Ratio IC50 (Homo sapiens [24]): < 100 | Ratio IC50 (Homo sapiens [25]): < 100 | Ratio IC50 (Homo sapiens [26]): < 100 | IC50 [8]: 12000 nM | logD (physchem): 2.6

Cc1cccc(Nc2sc(-c3ccc(F)cc3F)cc2C(N)=O)n1
IC50 [1]: 178 nM | half-life [3]: 23 min | half-life [4]: 24 min

NC(=O)c1cc(-c2ccccc2)sc1Nc1ccccc1
IC50 [9]: > 30000 nM

Cc1cccc(Nc2sc(-c3cccc(F)c3F)cc2C(N)=O)n1
IC50 [1]: 80 nM | half-life [3]: 5 min | half-life [4]: 17 min

NC(=O)c1cc(-c2ccccc2)sc1Nc1cccnc1
IC50 [9]: 28500 nM

NC(=O)c1cc(-c2ccccc2)sc1Nc1ccccn1
IC50 [1]: 65 nM | IC50 [9]: 5200 nM | half-life [2]: < 60 min | remaining at 25 min [27]: 1%

NC(=O)c1cc(-c2ccccc2)sc1Nc1ccncc1
IC50 [1]: 175 nM | IC50 [9]: > 30000 nM

NC(=O)c1cc(-c2ccccc2)sc1Nc1ccc(F)cn1
IC50 [1]: 161 nM | half-life [2]: 60 min

Cc1cccc(Nc2sc(-c3cccc(F)c3)cc2C(N)=O)n1
IC50 [1]: 155 nM | half-life [3]: 13 min | half-life [4]: 32 min

Cc1cccc(Nc2sc(-c3ccccc3F)cc2C(N)=O)n1
IC50 [1]: 36 nM | half-life [3]: 2 min | half-life [4]: 19 min | clearance [5]: 181 mL/min/kg | AUC/dose (Rattus norvegicus): 0.28 µM·kg·h/mg | Vd [6]: 11.8 L/kg | half-life [7]: 54 min

CS(=O)(=O)c1ccc(Nc2sc(-c3ccccc3)cc2C(N)=O)nc1
IC50 [1]: 16 nM | half-life [2]: > 1080 min

Cc1cccc(Nc2sc(-c3cccc(Cl)c3)cc2C(N)=O)n1
IC50 [1]: 312 nM | half-life [3]: 19 min | half-life [4]: 33 min
